Data taken from PubChem BioAssay AID2060891 (Molecular Pharmacology Branch, DTP, NCI, 2025).

Tested on: K98450-129-R-PDC complex spheroid growth, percent test/control
Experiment: Anticancer human tumor K98450-129-R-PDC patient-derived colon adenocarcinoma cell line growth inhibition [RAS]
Conditions: for IC50: curve of first compound; for viability, T/C: stronger effect = lower value
Procedure, shortened: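 Multi-cell-type spheroids: tumor cells plus HUVEC endothelial cells and mesenchymal stem cells. RAS-pathway inhibitors were combined with targeted agents, each dosed in half-log steps down from clinical Cmax, or from 10 microM when Cmax was unknown.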
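Also: spheroids exposed to agents for seven days before the viability readout.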
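For viability, T/C in this document: luminescence used as a proxy for viable cell amount.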

Cc1nc(N2CCC3(CC2)COC(C)C3N)c(CO)nc1Sc1ccnc(N)c1Cl (centres undefined) + C=CC(=O)N1CCN(c2nc(OCC3CCCN3C)nc3c(F)c(-c4nc(N)cc(C)c4C(F)(F)F)c(Cl)cc23)C(C)C1
IC50 (second compound 0.00316 µM): 569 nM
IC50 (second compound 0.01 µM): 235 nM
IC50 (second compound 0.0316 µM): 82.4 nM
IC50 (second compound 0.1 µM): < 31.6 nM
IC50 (second compound 0.316 µM): < 31.6 nM
IC50 (second compound 1 µM): < 31.6 nM
viability, T/C (second compound 0.00316 µM, first compound 0.0316 µM): 88.3%
viability, T/C (second compound 0.00316 µM, first compound 0.1 µM): 87.9%
viability, T/C (second compound 0.00316 µM, first compound 0.316 µM): 66.2%
viability, T/C (second compound 0.00316 µM, first compound 1 µM): 34.3%
viability, T/C (second compound 0.00316 µM, first compound 3.16 µM): 10.5%
viability, T/C (second compound 0.00316 µM, first compound 10 µM): 7.72%
viability, T/C (second compound 0.01 µM, first compound 0.0316 µM): 82.9%
viability, T/C (second compound 0.01 µM, first compound 0.1 µM): 69.6%
viability, T/C (second compound 0.01 µM, first compound 0.316 µM): 44.6%
viability, T/C (second compound 0.01 µM, first compound 1 µM): 11.6%
viability, T/C (second compound 0.01 µM, first compound 3.16 µM): 9.41%
viability, T/C (second compound 0.01 µM, first compound 10 µM): 7.24%
viability, T/C (second compound 0.0316 µM, first compound 0.0316 µM): 61.2%
viability, T/C (second compound 0.0316 µM, first compound 0.1 µM): 47.6%
viability, T/C (second compound 0.0316 µM, first compound 0.316 µM): 20.9%
viability, T/C (second compound 0.0316 µM, first compound 1 µM): 9.03%
viability, T/C (second compound 0.0316 µM, first compound 3.16 µM): 9.29%
viability, T/C (second compound 0.0316 µM, first compound 10 µM): 7.4%
viability, T/C (second compound 0.1 µM, first compound 0.0316 µM): 40.2%
viability, T/C (second compound 0.1 µM, first compound 0.1 µM): 20.5%
viability, T/C (second compound 0.1 µM, first compound 0.316 µM): 11%
viability, T/C (second compound 0.1 µM, first compound 1 µM): 8.4%
viability, T/C (second compound 0.1 µM, first compound 3.16 µM): 8.28%
viability, T/C (second compound 0.1 µM, first compound 10 µM): 7.55%
viability, T/C (second compound 0.316 µM, first compound 0.0316 µM): 23.4%
viability, T/C (second compound 0.316 µM, first compound 0.1 µM): 14.7%
viability, T/C (second compound 0.316 µM, first compound 0.316 µM): 10.1%
viability, T/C (second compound 0.316 µM, first compound 1 µM): 9.11%
viability, T/C (second compound 0.316 µM, first compound 3.16 µM): 8.21%
viability, T/C (second compound 0.316 µM, first compound 10 µM): 7.31%
viability, T/C (second compound 1 µM, first compound 0.0316 µM): 21.6%
viability, T/C (second compound 1 µM, first compound 0.1 µM): 15.2%
viability, T/C (second compound 1 µM, first compound 0.316 µM): 10.9%
viability, T/C (second compound 1 µM, first compound 1 µM): 8.92%
viability, T/C (second compound 1 µM, first compound 3.16 µM): 8.81%
viability, T/C (second compound 1 µM, first compound 10 µM): 7.65%

CCc1c2c(nc3ccc(O)cc13)-c1cc3c(c(=O)n1C2)COC(=O)[C@]3(O)CC + C=CC(=O)N1CCN(c2nc(OCC3CCCN3C)nc3c(F)c(-c4nc(N)cc(C)c4C(F)(F)F)c(Cl)cc23)C(C)C1
IC50 (second compound 0.00316 µM): 28.1 nM
IC50 (second compound 0.01 µM): 16.6 nM
IC50 (second compound 0.0316 µM): 7 nM
IC50 (second compound 0.1 µM): 3.26 nM
IC50 (second compound 0.316 µM): < 0.949 nM
IC50 (second compound 1 µM): < 0.949 nM
viability, T/C (second compound 0.00316 µM, first compound 0.000949 µM): 93.5%
viability, T/C (second compound 0.00316 µM, first compound 0.003 µM): 87.7%
viability, T/C (second compound 0.00316 µM, first compound 0.00949 µM): 68.1%
viability, T/C (second compound 0.00316 µM, first compound 0.03 µM): 49.7%
viability, T/C (second compound 0.00316 µM, first compound 0.0949 µM): 34.1%
viability, T/C (second compound 0.00316 µM, first compound 0.3 µM): 27.6%
viability, T/C (second compound 0.01 µM, first compound 0.000949 µM): 86.7%
viability, T/C (second compound 0.01 µM, first compound 0.003 µM): 76.1%
viability, T/C (second compound 0.01 µM, first compound 0.00949 µM): 60.6%
viability, T/C (second compound 0.01 µM, first compound 0.03 µM): 39.1%
viability, T/C (second compound 0.01 µM, first compound 0.0949 µM): 29.2%
viability, T/C (second compound 0.01 µM, first compound 0.3 µM): 23.6%
viability, T/C (second compound 0.0316 µM, first compound 0.000949 µM): 74.5%
viability, T/C (second compound 0.0316 µM, first compound 0.003 µM): 63.8%
viability, T/C (second compound 0.0316 µM, first compound 0.00949 µM): 46.1%
viability, T/C (second compound 0.0316 µM, first compound 0.03 µM): 24.1%
viability, T/C (second compound 0.0316 µM, first compound 0.0949 µM): 20.6%
viability, T/C (second compound 0.0316 µM, first compound 0.3 µM): 18%
viability, T/C (second compound 0.1 µM, first compound 0.000949 µM): 54.6%
viability, T/C (second compound 0.1 µM, first compound 0.003 µM): 53.3%
viability, T/C (second compound 0.1 µM, first compound 0.00949 µM): 33%
viability, T/C (second compound 0.1 µM, first compound 0.03 µM): 20.3%
viability, T/C (second compound 0.1 µM, first compound 0.0949 µM): 16.7%
viability, T/C (second compound 0.1 µM, first compound 0.3 µM): 11.7%
viability, T/C (second compound 0.316 µM, first compound 0.000949 µM): 38.1%
viability, T/C (second compound 0.316 µM, first compound 0.003 µM): 35.4%
viability, T/C (second compound 0.316 µM, first compound 0.00949 µM): 25.4%
viability, T/C (second compound 0.316 µM, first compound 0.03 µM): 16.6%
viability, T/C (second compound 0.316 µM, first compound 0.0949 µM): 15%
viability, T/C (second compound 0.316 µM, first compound 0.3 µM): 9.83%
viability, T/C (second compound 1 µM, first compound 0.000949 µM): 31.7%
viability, T/C (second compound 1 µM, first compound 0.003 µM): 30.3%
viability, T/C (second compound 1 µM, first compound 0.00949 µM): 23.6%
viability, T/C (second compound 1 µM, first compound 0.03 µM): 18.9%
viability, T/C (second compound 1 µM, first compound 0.0949 µM): 14.1%
viability, T/C (second compound 1 µM, first compound 0.3 µM): 8.49%
